Read-outs that look alike come from different tables or passages of the source.
Key:
HCV 1a replicon = experiment: Cell-based HCV replicon assay (TaqMan), genotype 1a replicon; details: HCV genotype 1a replicon cells, replicon RNA by real time PCR, day 3, EC90 = concentration for ΔCT=3.2 over baseline
Experimental: (§1) Measurement of inhibition by compounds of the present invention was performed using the HCV replicon system. Several different replicons encoding different HCV genotypes or mutations were used. In addition, potency measurements were made using different formats of the replicon assay, including different ways of measurements and different plating formats. See Jan M. Vrolijk et al., A replicons-based bioassay for the measurement of interferons in patients with chronic hepatitis C, 110 J. VIROLOGICAL METHODS 201 (2003); Steven S. Carroll et al., Inhibition of Hepatitis C Virus RNA Replication by 2′-Modified Nucleoside Analogs, 278(14) J. BIOLOGICAL CHEMISTRY 11979 (2003). However, the underlying principles are common to all of these determinations, and are outlined below.
(§2) TaqMan®-Based Assay Protocol:
(§3) Compounds of the present invention were assayed for cell-based anti-HCV activity using the following protocol. Replicon cells were seeded at 5000 cells/well in 96-well collagen I-coated Nunc plates in the presence of the test compound. Various concentrations of test compound, typically in 10 serial 2-fold dilutions, were added to the assay mixture, with the starting concentration ranging from 250 μM to 1 μM. The final concentration of DMSO was 0.5%, fetal bovine serum was 5%, in the assay media. Cells were harvested on day 3 by the addition of 1× cell lysis buffer (Ambion cat #8721). The replicon RNA level was measured using real time PCR (TaqMan® assay). The amplicon was located in 5B. The PCR primers were: 5B.2F, ATGGACAGGCGCCCTGA (SEQ. ID NO. 1); 5B.2R, […] (SEQ. ID NO. 2); the probe sequence was FAM-labeled CACGCCATGCGCTGCGG (SEQ. ID NO. 3). GAPDH RNA was used as endogenous control and was amplified in the same reaction as NS5B (multiplex PCR) using primers and VIC-labeled probe recommended by the manufacturer (PE Applied Biosystem). The real-time […] reactions were run on ABI PRISM 7900HT Sequence Detection System using the following program: 48° C. for 30 minutes, 95° C. for 10 minutes, 40 cycles of 95° C. for 15 sec, 60° C. for 1 minute. The ΔCT values (CT5B-CTGAPDH) were plotted against the concentration of test compound and fitted to the sigmoid dose-response model using XLfit4 (MDL). EC50 was defined as the concentration of inhibitor necessary to achieve ΔCT=1 over the projected baseline; EC90 the concentration necessary to achieve ΔCT=3.2 over the baseline. Alternatively, to quantitate the absolute amount of replicon RNA, a standard curve was established by including serially diluted T7 transcripts of replicon RNA in the Taqman assay. All TaqMan® reagents were from PE Applied Biosystems. Such an assay procedure was described in detail in e.g. Malcolm et al., Antimicrobial Agents and Chemotherapy 50: 1013-1020 (2006).
(§4) HCV replicon EC50 assay data for various replicons and mutants was calculated for selected compounds of the present invention using this method and is provided in the tables above herein.

HCV 1a Y93H replicon = experiment: Cell-based HCV replicon assay (TaqMan), 1a Y93H mutant replicon; details: EC90 = concentration for ΔCT=3.2 over baseline
Experimental: as §1, §2, §3, §4

HCV 2b replicon = experiment: Cell-based HCV replicon assay (TaqMan), genotype 2b replicon; details: Hepatitis C virus, 72 h, read-out: 2b EC90, HCV genotype 2b replicon cells, replicon RNA by real time PCR, day 3; EC90 = concentration for ΔCT=3.2 over baseline
Experimental: as §1, §2, §3, §4

[1] = Hepatitis C virus, 72 h, read-out: 1a Y93H EC90, HCV 1a Y93H mutant replicon cells, replicon RNA by real time PCR, day 3

SMILES | EC90 (HCV 1a replicon; Hepatitis C virus, 72 h) | EC90 (HCV 1a Y93H replicon; [1]) | EC90 (HCV 2b replicon) | EC90 (HCV 1a replicon) | EC90 (HCV 1a Y93H replicon; read-out: 1a Y93H EC90, HCV 1a Y93H mutant replicon cells, replicon RNA by real time PCR, day 3)
COC(=O)N[C@@H](CC(C)(C)C)C(=O)N1CCC[C@H]1c1ncc(-c2ccc(-c3ccc4c(ccc5nc([C@@H]6C[Si](C)(C)CN6C(=O)[C@@H](NC(=O)OC)C(C)C)[nH]c54)c3)cc2)[nH]1 [Compound 84] | 0.92 nM | > 1000 nM | 413 nM |  | 
COC(=O)N[C@H](C(=O)N1C[Si](C)(C)C[C@H]1c1nc2ccc3cc(-c4ccc(-c5cnc([C@@H]6CCCN6C(=O)[C@@H](NC(=O)OC)C6CCCC6)[nH]5)cc4)ccc3c2[nH]1)C(C)C [Compound 85] | 0.52 nM | > 1000 nM | 330 nM |  | 
COC(=O)N[C@H](C(=O)N1C[Si](C)(C)C[C@H]1c1nc2ccc3cc(-c4ccc(-c5cnc([C@@H]6CCCN6C(=O)[C@@H](NC(=O)OC)C(C)(C)OC)[nH]5)cc4)ccc3c2[nH]1)C(C)C [Compound 86] | 0.77 nM | > 1000 nM | 389 nM |  | 
COC(=O)N[C@H](C(=O)N1C[Si](C)(C)C[C@H]1c1nc2ccc3cc(-c4ccc(-c5cnc([C@@H]6CCCN6C(=O)[C@@H](NC(=O)OC)[C@@H](C)O)[nH]5)cc4)ccc3c2[nH]1)C(C)C [Compound 87] | 0.67 nM | > 1000 nM | 81.7 nM |  | 
CCN(CC)[C@@H](C(=O)N1CCC[C@H]1c1ncc(-c2ccc(-c3ccc4c(ccc5nc([C@@H]6C[Si](C)(C)CN6C(=O)[C@@H](NC(=O)OC)C(C)C)[nH]c54)c3)cc2)[nH]1)c1ccccc1 [Compound 88] | 0.26 nM | 500 nM | 10.9 nM |  | 
COC(=O)N[C@H](C(=O)N1C[Si](C)(C)C[C@H]1c1nc2ccc3cc(-c4ccc(-c5cnc([C@@H]6CCCN6C(=O)[C@@H](NC(=O)OC)[C@@H](C)OC)[nH]5)cc4)ccc3c2[nH]1)C(C)C [Compound 89] | 0.28 nM | > 1000 nM | > 1000 nM |  | 
COC(=O)N[C@@H](CO)C(=O)N1CCC[C@H]1c1ncc(-c2ccc(-c3ccc4c(ccc5nc([C@@H]6C[Si](C)(C)CN6C(=O)[C@@H](NC(=O)OC)C(C)C)[nH]c54)c3)cc2)[nH]1 [Compound 90] | 0.56 nM | > 1000 nM | > 1000 nM |  | 
COC(=O)N[C@H](C(=O)N1CCC[C@H]1c1nc(Cl)c(-c2ccc(-c3ccc4c(ccc5nc([C@@H]6C[Si](C)(C)CN6C(=O)[C@@H](NC(=O)OC)C(C)C)[nH]c54)c3)cc2)[nH]1)C(C)C [Compound 94] | 0.19 nM | 935 nM | 184 nM |  | 
COC(=O)N[C@H](C(=O)N1C[Si](C)(C)C[C@H]1c1nc2ccc3cc(-c4ccc(-c5cnc([C@@H]6C[C@H]7C[C@H]7N6C(=O)[C@@H](NC(=O)OC)C6CCOCC6)[nH]5)cc4)ccc3c2[nH]1)C1CCOCC1 [Compound 99] | 0.14 nM | 42 nM | 3.5 nM |  | 
CC(C)(C)OC(=O)N1C[Si](C)(C)C[C@H]1c1nc2ccc3cc(-c4ccc(-c5[nH]c([C@@H]6C[C@H]7C[C@H]7N6C(=O)OC(C)(C)C)nc5Cl)cc4)ccc3c2[nH]1 [Compound 100] | > 1000 nM | > 1000 nM | > 1000 nM |  | 
COC(=O)N[C@H](C(=O)N1C[Si](C)(C)C[C@H]1c1nc2ccc3cc(-c4ccc(-c5[nH]c([C@@H]6C[C@H]7C[C@H]7N6C(=O)[C@@H](NC(=O)OC)C6CCOCC6)nc5Cl)cc4)ccc3c2[nH]1)C1CCOCC1 [Compound 103] | 0.082 nM | 16.1 nM | 2.85 nM |  | 
CC(C)(C)OC(=O)N1C[Si](C)(C)C[C@H]1c1nc2ccc3cc(-c4ccc(-c5cnc([C@@H]6C[C@H]7C[C@H]7N6C(=O)OC(C)(C)C)[nH]5)cc4)ccc3c2[nH]1 [Compound 104] |  |  | > 1000 nM | > 1000 nM | > 1000 nM
